Reference: patent EP4631940A1, “COMPOUND TARGETING PAN-KRAS PROTEIN DEGRADATION AGENT AND USE THEREOF” (Betta Pharmaceuticals Co., Ltd., priority 2022, dated 2024)
Like-named read-outs stand apart in the source and are kept apart here.

Experiments:
AGS = assay: Cell proliferation experiment (CellTiter-Glo); format: cell-based; conditions: read-out: IC50(nM) AGS
H358 = assay: Cell proliferation experiment (CellTiter-Glo); format: cell-based; conditions: H358, KRAS mutation type G12C, 96 h incubation
SW620 = assay: Cell proliferation experiment (CellTiter-Glo); format: cell-based; conditions: read-out: IC50(nM) SW620
in vitro [1] = conditions: mouse, microsomes
KRAS G12D [2] = target: T1, KRAS G12D (Homo sapiens, UniProt P01116, G12D)
in vitro [3] = conditions: human, microsomes
in vitro [4] = conditions: dog, microsomes
in vitro [5] = conditions: rat, microsomes
KRAS G12D [6] = target: T1, KRAS G12D; assay: cell-based; conditions: AGS

T1 sequence (P01116 1-188 isoform P01116-2 G12D): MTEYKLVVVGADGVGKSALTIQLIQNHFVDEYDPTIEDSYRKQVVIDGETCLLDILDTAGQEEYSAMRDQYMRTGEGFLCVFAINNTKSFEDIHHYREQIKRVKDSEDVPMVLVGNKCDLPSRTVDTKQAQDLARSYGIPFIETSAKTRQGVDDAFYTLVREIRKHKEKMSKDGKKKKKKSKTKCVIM

| Compound | IC50 (AGS) | IC50 (H358) | IC50 (SW620) | microsomal CLint (in vitro [1]) | IC50 (AGS; Homo sapiens, AGS, 96 h) | DC50 (KRAS G12D [2]) | microsomal CLint (in vitro [3]) | microsomal CLint (in vitro [4]) | microsomal CLint (in vitro [5]) | IC50 (SW620; Homo sapiens, SW-620, 96 h) | Dmax (KRAS G12D [6]) | IC50 (H358; Homo sapiens, NCI-H358) |
| --- | --- | --- | --- | --- | --- | --- | --- | --- | --- | --- | --- | --- |
| CCc1c(F)ccc2cc(O)cc(-c3ncc4c(N5CCC[C@@](C)(O)C5)nc(OCC5(CN6CCC7(CC6)CN(Cc6cnc(-c8cn([C@H](C(=O)N9C[C@H](O)C[C@H]9C(=O)N[C@@H](C)c9ccc(-c%10scnc%10C)cc9)C(C)C)nn8)cn6)C7)CC5)nc4c3F)c12 [Compound 189] | 2.9 nM | 15 nM | 13 nM |  |  |  |  |  |  |  |  |  |
| CCc1c(F)ccc2cc(O)cc(-c3ncc4c(N5CCC[C@@](C)(O)C5)nc(OCC5(CN6CCC(n7cc(-c8cn([C@H](C(=O)N9C[C@H](O)C[C@H]9C(=O)N[C@@H](C)c9ccc(-c%10scnc%10C)cc9)C(C)C)nn8)cn7)CC6)CC5)nc4c3F)c12 [Compound 138] |  |  |  | 13.6 µL/min/mg | 14 nM | 13 nM | 11.2 µL/min/mg | 25.5 µL/min/mg | 5.7 µL/min/mg | 102 nM | 95% |  |
| CCc1c(F)ccc2cc(O)cc(-c3ncc4c(N5CCC[C@@](C)(O)C5)nc(OCC5(CN6CCC7(CC6)CN(c6cc([C@H](C(=O)N8C[C@H](O)C[C@H]8C(=O)N[C@@H](C)c8ccc(-c9scnc9C)cc8)C(C)C)on6)C7)CC5)nc4c3F)c12 [Compound 105] |  |  |  | 13.3 µL/min/mg | 12 nM | 8.9 nM | 9.9 µL/min/mg | 28.5 µL/min/mg | 5.9 µL/min/mg |  | 95% |  |
| C=C1CN2[C@H](COc3ccc(-c4cn([C@H](C(=O)N5C[C@H](O)C[C@H]5C(=O)N[C@@H](C)c5ccc(-c6scnc6C)cc5)C(C)C)nn4)cn3)CC[C@@]2(COc2nc(N3CCC[C@@](C)(O)C3)c3cnc(-c4cc(O)cc5ccc(F)c(CC)c45)c(F)c3n2)C1 [Compound 124] |  |  |  | 18.6 µL/min/mg | 15 nM | 21 nM | 49.7 µL/min/mg | 88 µL/min/mg | 9.1 µL/min/mg | 135 nM | 95% |  |
| CCc1c(F)ccc2cc(O)cc(-c3ncc4c(N5CCC[C@@](C)(O)C5)nc(OCC5(CN6CCC(N7CCN(c8cc([C@H](C(=O)N9C[C@H](O)C[C@H]9C(=O)N[C@@H](C)c9ccc(-c%10scnc%10C)cc9)C(C)C)on8)CC7)CC6)CC5)nc4c3F)c12 [Compound 115] |  |  |  | 15.9 µL/min/mg | 29 nM | 21 nM | 32.1 µL/min/mg | 18.3 µL/min/mg | 13.8 µL/min/mg |  | 95% |  |
| CCc1c(F)ccc2cc(O)cc(-c3ncc4c(N5CCC[C@@](C)(O)C5)nc(OCC5(CN6CCN(c7cnc(-c8cn([C@H](C(=O)N9C[C@H](O)C[C@H]9C(=O)N[C@@H](C)c9ccc(-c%10scnc%10C)cc9)C(C)C)nn8)cn7)CC6)CC5)nc4c3F)c12 [Compound 134] |  |  |  | 6.4 µL/min/mg | 10 nM | 5.9 nM | 28.4 µL/min/mg | 5.5 µL/min/mg | 3 µL/min/mg | 58 nM | 95% |  |
| CCc1c(F)ccc2cc(O)cc(-c3ncc4c(N5CCC[C@@](C)(O)C5)nc(OCC5(CN6CCC(Oc7cnc(-c8cn([C@H](C(=O)N9C[C@H](O)C[C@H]9C(=O)N[C@@H](CO)c9ccc(-c%10scnc%10C)cc9)C(C)C)nn8)cn7)CC6)CC5)nc4c3F)c12 [Compound 178] | 2.5 nM | 5.7 nM | 9.4 nM |  |  |  |  |  |  |  |  |  |
| CCc1c(F)ccc2cc(O)cc(-c3ncc4c(N5CCCC(C)(O)C5)nc(OCC5(CN6CCC(COc7ccc(C(=O)N[C@H](C(=O)N8C[C@H](O)C[C@H]8C(=O)N[C@@H](C)c8ccc(-c9scnc9C)cc8)C(C)(C)C)cc7)CC6)CC5)nc4c3F)c12 (stereo partly drawn) [Compound 1, (2S,4R)-1-((2S)-2-(4-((1-((1-(((7-(8-ethyl-7-fluoro-3-hydroxynaphthalen-1-yl)-8-fluoro-4-(3-hydroxy-3-methylpiperidin-1-yl)pyrido[4,3-d]pyrimidin-2-yl)oxy)methyl)cyclopropyl)methyl)piperidin-4-yl)methoxy)benzamido)-3,3-dimethylbutanoyl)-4-hydroxy-N-((S)-1-(4-(4-methylthiazol-5-yl)phenyl)ethyl)pyrrolidine-2-carboxamide] |  |  |  |  | 109 nM |  |  |  |  |  |  | 1080 nM |
| CCc1c(F)ccc2cc(O)cc(-c3ncc4c(N5CCC[C@@](C)(O)C5)nc(OCC5(CN6CCC(F)(COc7cc([C@H](C(=O)N8C[C@H](O)C[C@H]8C(=O)N[C@@H](C)c8ccc(-c9scnc9C)cc8)C(C)C)on7)CC6)CC5)nc4c3F)c12 [Compound 100] |  |  |  | 3.2 µL/min/mg | 11 nM | 9.5 nM | 47 µL/min/mg | 57.5 µL/min/mg | 7.9 µL/min/mg | 38 nM | 95% |  |
| (2S,4R)-1-((S)-2-(4-(5-(7-((7-(8-ethyl-7-fluoro-3-hydroxynaphthalen-1-yl)-8-fluoro-4-((R)-3-hy droxy-3-methylpiperidin-1-yl)pyrido[4,3-d]pyrimidin-2-yl)oxy)methyl)cyclopropyl)methyl)-2,7-azaspiro[3.5]nonan-2-yl)pyrazin-2-yl)-1H-1,2,3-triazol-1-yl)-3-methylbutanoyl)-4-hydroxy-N-(( R)-2-hydroxy-1-(4-(4-methylthiazol-5-yl)phenyl)ethyl)pyrrolidine-2-carboxamide [Compound 170] | 3.6 nM | 8.5 nM | 19 nM |  |  |  |  |  |  |  |  |  |
| (2S,4R)-1-((2R)-2-(3-(3-(4-((1-((7-(8-ethyl-7-fluoro-3-hydroxynaphthalen-1-yl)-8-fluoro-4-((R) 3-hydroxy-3-methylpiperidin-1-yl)pyrido[4,3-d]pyrimidin-2-yl)oxy)methyl)cyclopropyl)methyl) piperazin-1-yl)pyrrolidin-1-yl)isoxazol-5-yl)-3-methylbutanoyl)-4-hydroxy-N-((S)-1-(4-(4-meth ylthiazol-5-yl)phenyl)ethyl)pyrrolidine-2-carboxamide [Compound 166] | 4.9 nM | 21 nM | 33 nM |  |  |  |  |  |  |  |  |  |
| C=C1CN2[C@@H](COC(=O)N3CCC4(CC3)CC(c3cn([C@H](C(=O)N5C[C@H](O)C[C@H]5C(=O)N[C@@H](C)c5ccc(-c6scnc6C)cc5)C(C)C)nn3)C4)CC[C@@]2(COc2nc(N3CCC[C@@](C)(O)C3)c3cnc(-c4cc(O)cc5ccc(F)c(CC)c45)c(F)c3n2)C1 [Compound 143] |  |  |  |  | 16 nM | 12 nM |  |  |  | 58 nM | 95% | 24 nM |
| CCc1c(F)ccc2cc(O)cc(-c3ncc4c(N5CCC[C@@](C)(O)C5)nc(OCC5(CN6CCC(c7ccc(-c8cn([C@H](C(=O)N9C[C@H](O)C[C@H]9C(=O)N[C@@H](C)c9ccc(-c%10scnc%10C)cc9)C(C)(C)C)nn8)cc7)CC6)CC5)nc4c3F)c12 [Compound 119] |  |  |  | 10.4 µL/min/mg | 37 nM |  | 6.1 µL/min/mg | 14.9 µL/min/mg | 9.1 µL/min/mg |  |  |  |
| CCc1c(F)ccc2cc(O)cc(-c3ncc4c(N5CCC[C@@](C)(O)C5)nc(OCC5(CN6CCN(CC7CCN(c8cc([C@H](C(=O)N9C[C@H](O)C[C@H]9C(=O)N[C@@H](C)c9ccc(-c%10scnc%10C)cc9)C(C)C)on8)CC7)CC6)CC5)nc4c3F)c12 [Compound 111] |  |  |  | 10.6 µL/min/mg | 20 nM | 21 nM | 21.7 µL/min/mg | 8.4 µL/min/mg | 15.7 µL/min/mg |  | 95% |  |
| C#Cc1c(F)ccc2cc(O)cc(-c3ncc4c(N5CCCn6nc(C(=O)N(C)C)cc6C5)nc(OCC5(CN6CCC(COc7ccc(C(=O)N[C@H](C(=O)N8C[C@H](O)C[C@H]8C(=O)N[C@@H](C)c8ccc(-c9scnc9C)cc8)C(C)(C)C)cc7)CC6)CC5)nc4c3F)c12 [Compound 89] | 193 nM | 635 nM | 1420 nM |  |  |  |  |  |  |  |  |  |
| CCc1c(F)ccc2cc(O)cc(-c3ncc4c(N5CCC[C@@](C)(O)C5)nc(OCC5(CN6CCN(C7CN(c8cnc(-c9cn([C@H](C(=O)N%10C[C@H](O)C[C@H]%10C(=O)N[C@@H](C)c%10ccc(-c%11scnc%11C)cc%10)C(C)C)nn9)cn8)C7)CC6)CC5)nc4c3F)c12 [Compound 183] | 3 nM | 12 nM | 11 nM |  |  |  |  |  |  |  |  |  |
| (2S,4R)-1-((S)-2-(4-(5-((1-((1-(((7-(8-ethyl-7-fluoro-3-hydroxynaphthalen-1-yl)-8-fluoro-4-((R)-3-hydroxy-3-methylpiperidin-1-yl)pyrido[4,3-d]pyrimidin-2-yl)oxy)methyl)cyclopropyl)methyl) piperidin-4-yl)oxy)pyrazin-2-yl)-1H-1,2,3-triazol-1-yl)-3-methylbutanoyl)-4-hydroxy-N-((1R,2R )-2-hydroxy-3-methyl-1-(4-(4-methylthiazol-5-yl)phenyl)butyl)pyrrolidine-2-carboxamide [Compound 184] | 2.7 nM | 15 nM | 11 nM |  |  |  |  |  |  |  |  |  |
| CCc1c(F)ccc2cc(O)cc(-c3ncc4c(N5CCC[C@@](C)(O)C5)nc(OCC5(CN6CCC(Oc7cc([C@H](C(=O)N8C[C@H](O)C[C@H]8C(=O)N[C@@H](C)c8ccc(-c9scnc9C)cc8)C(C)C)on7)CC6)CC5)nc4c3F)c12 [Compound 114, (2S,4R)-1-((R)-2-(3-((1-((1-(((7-(8-ethyl-7-fluoro-3-hydroxynaphthalen-1-yl)-8-fluoro-4-((R)-3-hydroxy-3-methylpiperidin-1-yl)pyrido[4,3-d]pyrimidin-2-yl)oxy)methyl)cyclopropyl)methyl)piperidin-4-yl)oxy)isoxazol-5-yl)-3-methylbutanoyl)-4-hydroxy-N-((S)-1-(4-(4-methylthiazol-5-yl)phenyl)ethyl)pyrrolidine-2-carboxamide] |  |  |  | 18.9 µL/min/mg | 13 nM | 18 nM | 46.5 µL/min/mg | 50.5 µL/min/mg | 25.2 µL/min/mg |  | 95% |  |
